Counter-ions that a name gives are not always drawn.
Biological target: T1, human GYS1 (glycogen synthase) (Homo sapiens, UniProt P13807)
T1 construct: made in house; host or cells: HEK293T
T1 sequence (P13807 1-737): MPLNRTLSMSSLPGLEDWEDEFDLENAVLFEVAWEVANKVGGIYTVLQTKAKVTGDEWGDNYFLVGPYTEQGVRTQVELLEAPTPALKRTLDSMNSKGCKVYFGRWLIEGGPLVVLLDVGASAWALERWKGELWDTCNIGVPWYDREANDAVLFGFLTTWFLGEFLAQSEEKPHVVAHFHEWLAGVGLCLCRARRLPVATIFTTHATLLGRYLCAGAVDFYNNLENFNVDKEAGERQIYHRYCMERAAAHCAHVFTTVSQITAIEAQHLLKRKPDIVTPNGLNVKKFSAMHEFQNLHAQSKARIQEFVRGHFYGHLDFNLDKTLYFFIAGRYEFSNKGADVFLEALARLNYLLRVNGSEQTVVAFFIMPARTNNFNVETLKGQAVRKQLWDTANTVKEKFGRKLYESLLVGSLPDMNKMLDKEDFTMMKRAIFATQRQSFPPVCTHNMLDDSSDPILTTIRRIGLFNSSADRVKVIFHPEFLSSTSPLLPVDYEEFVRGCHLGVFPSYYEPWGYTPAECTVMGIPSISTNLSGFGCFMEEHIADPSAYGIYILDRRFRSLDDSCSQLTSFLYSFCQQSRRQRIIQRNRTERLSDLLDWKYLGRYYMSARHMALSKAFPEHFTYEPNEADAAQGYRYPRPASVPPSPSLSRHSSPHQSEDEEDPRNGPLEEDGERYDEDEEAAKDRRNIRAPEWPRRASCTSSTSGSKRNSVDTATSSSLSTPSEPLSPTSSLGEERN
Test: Measurement of glycogen synthase activity
Format: biochemical
Conditions: concentration causing 50% increase in relative activity; 100% = compound of Example 1 of WO/2011/058154 at 10 μM; 10 mM Glucose-6-phosphate; 37° C. for 25 minutes (Examples 1 to 61 and 67 to 82) or 20 minutes (Examples 62 to 66); absorbance at 340 nm
Procedure, shortened: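 Human GYS1 from transfected HEK293T cells (re-dissolved 16000×g pellet) was reacted at 37 °C for 25 or 20 min in glycylglycine pH 7.3 with glucose-6-phosphate, glycogen and UDP-glucose. PK/LDH-coupled NADH read-out at 340 nm; EC50 from activity relative to a reference activator at 10 μM final (100%).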

Compound	EC50 [nM]
CSc1cc(F)c(F)cc1-c1ccc(OCc2cccc(C(=O)N(CC(=O)O)Cc3ccn[nH]3)c2)cc1 [Example 54, 2-[[3-[[4-(4,5-Difluoro-2-methylsulfanyl-phenyl)phenoxy]methyl]benzoyl]-(1H-pyrazol-5-ylmethyl)amino]acetic Acid]	15
CSc1cc(F)c(F)cc1-c1ccc(OCc2cccc(C(=O)N(CC(=O)O)Cc3ccnn3C)c2)cc1 [Example 55, 2-[[3-[[4-(4,5-Difluoro-2-methylsulfanyl-phenyl)phenoxy]methyl]benzoyl]-[(2-methylpyrazol-3-yl)methyl]amino]acetic Acid]	22
CSc1cc(F)c(F)cc1-c1ccc(OCc2cccc(C(=O)N(CCS(=O)(=O)N(C)C)CC(=O)O)c2)cc1 [Example 59, 2-[[3-[[4-(4,5-Difluoro-2-methylsulfanyl-phenyl)phenoxy]methyl]benzoyl]-[2-(dimethylsulfamoyl)ethyl]amino]acetic Acid]	16
CSc1cc(F)c(F)cc1-c1ccc(OCc2cccc(C(=O)N3C[C@H](C(N)=O)C[C@H]3C(=O)O)c2)cc1 [Example 61, (2S,4R)-4-Carbamoyl-1-[3-[[4-(4,5-difluoro-2-methylsulfanyl-phenyl)phenoxy]methyl]benzoyl]pyrrolidine-2-carboxylic Acid]	19
CSc1cc(F)c(F)cc1-c1ccc(OCc2cccc(C(=O)N3[C@@H](CO)CC[C@H]3C(=O)O)c2)cc1 [Example 64, (2S,5R)-1-[3-[[4-(4,5-Difluoro-2-methylsulfanyl-phenyl)phenoxy]methyl]benzoyl]-5-(hydroxymethyl)pyrrolidine-2-carboxylic Acid]	22
COC[C@H]1CC[C@@H](C(=O)O)N1C(=O)c1cccc(COc2ccc(-c3cc(F)c(F)cc3SC)cc2)c1 [Example 65, (2S,5R)-1-[3-[[4-(4,5-Difluoro-2-methylsulfanyl-phenyl)phenoxy]methyl]benzoyl]-5-(methoxymethyl)pyrrolidine-2-carboxylic Acid]	18
CSc1cc(F)c(F)cc1-c1ccc(OCc2cccc(C(=O)N(CC(=O)O)Cc3ccon3)c2)cc1 [Example 66, 2-[[3-[[4-(4,5-Difluoro-2-methylsulfanyl-phenyl)phenoxy]methyl]benzoyl]-(isoxazol-3-ylmethyl)amino]acetic Acid]	15
CSc1cc(F)c(F)cc1-c1ccc(OCc2cccc(C(=O)N(CC(=O)O)Cc3noc(C)n3)c2)cc1 [Example 69, 2-[[3-[[4-(4,5-Difluoro-2-methylsulfanyl-phenyl)phenoxy]methyl]benzoyl]-[(5-methyl-1,2,4-oxadiazol-3-yl)methyl]amino]acetic Acid]	20
CSc1cc(F)c(F)cc1-c1ccc(OCc2cccc(C(=O)N(CCn3cncn3)CC(=O)O)c2)cc1 [Example 70, 2-[[3-[[4-(4,5-Difluoro-2-methylsulfanyl-phenyl)phenoxy]methyl]benzoyl]-[2-(1,2,4-triazol-1-yl)ethyl]amino]acetic Acid]	21
CSc1cc(F)c(F)cc1-c1ccc(OCc2cccc(C(=O)N(CC(=O)O)Cc3cscn3)c2)cc1 [Example 71, 2-[[3-[[4-(4,5-Difluoro-2-methylsulfanyl-phenyl)phenoxy]methyl]benzoyl]-(thiazol-4-ylmethyl)amino]acetic Acid]	17
CSc1cc(F)c(F)cc1-c1ccc(OCc2cccc(C(=O)N(CC(=O)O)Cc3nnc(C)o3)c2)cc1 [Example 73, 2-[[3-[[4-(4,5-Difluoro-2-methylsulfanyl-phenyl)phenoxy]methyl]benzoyl]-[(5-methyl-1,3,4-oxadiazol-2-yl)methyl]amino]acetic Acid]	15
N#CCCN(CC(=O)O)C(=O)c1cccc(COc2ccc(-c3cc(F)c(F)c4ccoc34)cc2)c1 [Example 75, 2-[2-Cyanoethyl-[3-[[4-(4,5-difluorobenzofuran-7-yl)phenoxy]methyl]benzoyl]amino]acetic Acid]	22
CS(=O)(=O)CCCN(CC(=O)O)C(=O)c1cccc(COc2ccc(-c3cc(F)c(F)c4ccoc34)cc2)c1 [Example 77, 2-[[3-[[4-(4,5-Difluorobenzofuran-7-yl)phenoxy]methyl]benzoyl]-(3-methylsulfonylpropyl)amino]acetic Acid]	20
CO[C@H]1CCN(C(=O)c2cccc(COc3ccc(-c4cc(F)c(F)c5ccoc45)cc3)c2)[C@@H]1C(=O)O [Example 78, (2S,3S)-1-[3-[[4-(4,5-Difluorobenzofuran-7-yl)phenoxy]methyl]benzoyl]-3-methoxy-pyrrolidine-2-carboxylic Acid]	20
NC(=O)CCN(CC(=O)O)C(=O)c1cccc(COc2ccc(-c3cc(F)c(F)c4ccoc34)cc2)c1 [Example 79, 2-[(3-Amino-3-oxo-propyl)-[3-[[4-(4,5-difluorobenzofuran-7-yl)phenoxy]methyl]benzoyl]amino]acetic Acid]	22
COC[C@H](C)N(CC(=O)O)C(=O)c1cccc(COc2ccc(-c3cc(F)c(F)c4ccoc34)cc2)c1 [Example 80, 2-[[3-[[4-(4,5-Difluorobenzofuran-7-yl)phenoxy]methyl]benzoyl]-[(1S)-2-methoxy-1-methyl-ethyl]amino]acetic Acid]	24

The next compounds have a lower EC50 than those just listed; values first:

EC50 [nM]	Compound
9.5	COCCOCCN(CC(=O)O)C(=O)c1cccc(COc2ccc(-c3cc(F)c(F)cc3SC)cc2)c1 [Example 49, 2-[[3-[[4-(4,5-Difluoro-2-methylsulfanyl-phenyl)phenoxy]methyl]benzoyl]-[2-(2-methoxyethoxy)ethyl]amino]acetic Acid]
6.3	CSc1cc(F)c(F)cc1-c1ccc(OCc2cccc(C(=O)N(CC(=O)O)CC3CCCNC3)c2)cc1 (stereo not drawn) [Example 50, 2-[[3-[[4-(4,5-Difluoro-2-methylsulfanyl-phenyl)phenoxy]methyl]benzoyl]-(3-piperidylmethyl)amino]acetic Acid Trifluoroacetate]
5.2	CSc1cc(F)c(F)cc1-c1ccc(OCc2cccc(C(=O)N(CCS(N)(=O)=O)CC(=O)O)c2)cc1 [Example 51, 2-[[3-[[4-(4,5-Difluoro-2-methylsulfanyl-phenyl)phenoxy]methyl]benzoyl]-(2-sulfamoylethyl)amino]acetic Acid]
4.4	CSc1cc(F)c(F)cc1-c1ccc(OCc2cccc(C(=O)N(CC(=O)O)Cc3cocn3)c2)cc1 [Example 52, 2-[[3-[[4-(4,5-Difluoro-2-methylsulfanyl-phenyl)phenoxy]methyl]benzoyl]-(oxazol-4-ylmethyl)amino]acetic Acid]
7.9	CSc1cc(F)c(F)cc1-c1ccc(OCc2cccc(C(=O)N(CC(=O)O)Cc3ccncn3)c2)cc1 [Example 53, 2-[[3-[[4-(4,5-Difluoro-2-methylsulfanyl-phenyl)phenoxy]methyl]benzoyl]-(pyrimidin-4-ylmethyl)amino]acetic Acid]
< 3	CNS(=O)(=O)CCN(CC(=O)O)C(=O)c1cccc(COc2ccc(-c3cc(F)c(F)cc3SC)cc2)c1 [Example 56, 2-[[3-[[4-(4,5-Difluoro-2-methylsulfanyl-phenyl)phenoxy]methyl]benzoyl]-[2-(methylsulfamoyl)ethyl]amino]acetic Acid]
11	CSc1cc(F)c(F)cc1-c1ccc(OCc2cccc(C(=O)N(CCc3noc(C)n3)CC(=O)O)c2)cc1 [Example 60, 2-[[3-[[4-(4,5-Difluoro-2-methylsulfanyl-phenyl)phenoxy]methyl]benzoyl]-[2-(5-methyl-1,2,4-oxadiazol-3-yl)ethyl]amino]acetic Acid]
13	CSc1cc(F)c(F)cc1-c1ccc(OCc2cccc(C(=O)N(CC(=O)O)Cc3coc(C)n3)c2)cc1 [Example 67, 2-[[3-[[4-(4,5-Difluoro-2-methylsulfanyl-phenyl)phenoxy]methyl]benzoyl]-[(2-methyloxazol-4-yl)methyl]amino]acetic Acid]
< 3	CSc1cc(F)c(F)cc1-c1ccc(OCc2cccc(C(=O)N(CC(=O)O)Cc3nc(C)no3)c2)cc1 [Example 68, 2-[[3-[[4-(4,5-Difluoro-2-methylsulfanyl-phenyl)phenoxy]methyl]benzoyl]-[(3-methyl-1,2,4-oxadiazol-5-yl)methyl]amino]acetic Acid]
11	CSc1cc(F)c(F)cc1-c1ccc(OCc2cccc(C(=O)N3C(CC#N)CC[C@H]3C(=O)O)c2)cc1 (stereo partly drawn) [Example 72, (2S)-5-(Cyanomethyl)-1-[3-[[4-(4,5-difluoro-2-methylsulfanyl-phenyl)phenoxy]methyl]benzoyl]pyrrolidine-2-carboxylic Acid]
8	CSc1cc(F)c(F)cc1-c1ccc(OCc2cccc(C(=O)N(CC(=O)O)Cc3cn(C)cn3)c2)cc1 [Example 74, 2-[[3-[[4-(4,5-Difluoro-2-methylsulfanyl-phenyl)phenoxy]methyl]benzoyl]-[(1-methylimidazol-4-yl)methyl]amino]acetic Acid]

Source: patent US20160046592A1, “PHARMACEUTICAL COMPOSITION FOR THE TREATMENT OF DIABETES” (Ajinomoto Co., Inc., priority 2013, published 2016)
